How the values were obtained:
Type in all cases: in vivo
[1] = tested on: grass and broadleaf weeds; assay: Comparative testing of crystalline (I), (Ia), (Ib), summary of tables 3 to 6; conditions: see tables 3 to 6
Description: (§1) Seeds of grass and broadleaf weeds were sown in pots (diameter: 7 cm) filled with a sandy loam soil. Following germination the plants were grown under optimal conditions up to a growth stage of BBCH 11 to 14 depending on species.
(§2) The applications were performed by post emergence treatments on the planted pots using a spray volume of 300 L water per hectare. The herbicides were applied alone and in combination as described.
(§3) The trial was conducted in the greenhouse ensuring optimal growing conditions.
(§4) The herbicidal effects were assessed 21 days following application by visual ratings comparing treated and untreated plants (0%=no effect to 100%=complete die-off).
(§5) The compounds of the formula (Ia), (Ib) and (I) were formulated as WP (wettable powder) formulation.
(§6) The synergistic herbicidal activity was calculated using Colby's formula (cf. S. R. Colby; Weeds 15 (1967), 20-22): […]

[2] = tested on: MATIN (Matricaria inodora); assay: Post-emergence greenhouse herbicide test, visual rating; conditions: for MATIN Expected: Colby formula; for MATIN Synergism: observed minus expected; for MATIN Observed: post-emergence, 21 days after application
Description: as §1, §2, §3, §4, §5
(§7) • BBCH=the BBCH code provides information about the morphological development stage of a plant. Officially, the abbreviation denotes the Biologische Bundesanstalt, Bundessortenamt and Chemische Industrie [Federal Biological Institute for Agriculture and Forestry, Federal Office for Crop Plant Varieties and Chemical Industry]. The range of BBCH 00-10 denotes the germination stages of the seeds until surface penetration. The range of BBCH 11-25 denotes the leaf development stages until stocking (corresponding to the number of tillers or side-shoots). In the Trials, the Following Biotypes of Broad-Leaved Weeds and Weed Grasses were Used: • ALOMY—sensitive (Alopecurus myosuroides) sensitive to customary herbicidally active compounds. • ALOMY_R (resistant) (Alopecurus myosuroides) resistant to herbicidally active compounds of the HRAC groups A and B; population mixture of field origin having increased metabolic resistance (IMR) and some target site resistance (TSR). • LOLRI—sensitive (Lolium rigidum) sensitive to customary herbicidally active compounds. • LOLRI_R (resistant) (Lolium rigidum) resistant to herbicidally active compounds of the HRAC groups A and B; population mixture of field origin having increased metabolic resistance (IMR) and some target site resistance (TSR). • AMAPA_R (resistant) (Amaranthus palmeri) resistant to herbicidally active compounds of the HRAC groups A and B; population mixture of field origin having increased metabolic resistance (IMR) and some target site resistance (TSR). • CHRVI (Chloris virgate) feather finger grass • KCHSC (Kochia scoparia) Mexican burning bush • MATIN (Matricaria inodora) false chamomile • POLCO (Polygonum convolvulus) black knotweed • ABUTH (Abutilon theophrasti) china jute • AMAPA (Amaranthus palmeri) palmer amaranth • BIDPI (Bidens pilosa) common blackjack • CHEAL (Chenopodium album) common lambsquarters • EPHHL (Euphorbia heterophylla) wild spurge • XANST (Xanthium strumarium) large cocklebur • EMEAU (Emex australis)—Cathead • GALAP (Gallium aparine)—Cleaver
as §6

[3] = tested on: ABUTH (Abutilon theophrasti); assay: as above; conditions: for ABUTH Expected: Colby formula; for ABUTH synerg.: observed minus expected; for ABUTH Observed: post-emergence, 21 days after application
Description: as §1, §2, §3, §4, §5, §7, §6

[4] = tested on: AMAPA-R (resistant) (Amaranthus palmeri); assay: as above; conditions: 25 g/ha (Ia) + 25 g/ha (Ib)
Description: as §1, §2, §3, §4, §5, §7, §6

[5] = tested on: LOLRI_R (resistant) (Lolium rigidum); assay: as above; conditions: for LOLRI_R Expected: Colby formula; for LOLRI_R Synergism: observed minus expected; for LOLRI_R Observed: post-emergence, 21 days after application
Description: as §1, §2, §3, §4, §5, §7, §6

GALAP (Gallium aparine) = assay: as above; conditions: 50 g/ha
Description: as §1, §2, §3, §4, §5, §7, §6

[6] = tested on: CHEAL (Chenopodium album); assay: as above; conditions: 25 g/ha (Ia) + 25 g/ha (Ib)
Description: as §1, §2, §3, §4, §5, §7, §6

EMEAU (Emex australis) = assay: as above; conditions: 12.5 g/ha (row as printed)
Description: as §1, §2, §3, §4, §5, §7, §6

[7] = tested on: XANST (Xanthium strumarium); assay: as above; conditions: for XANST Expected: Colby formula; for XANST synerg.: observed minus expected; for XANST Observed: post-emergence, 21 days after application
Description: as §1, §2, §3, §4, §5, §7, §6

CHRVI (Chloris virgate) = assay: as above; conditions: 12.5 g/ha
Description: as §1, §2, §3, §4, §5, §7, §6

[8] = tested on: LOLRI - sensitive (Lolium rigidum); assay: as above; conditions: for LOLRI Expected: Colby formula; for LOLRI Synergism: observed minus expected; for LOLRI Observed: post-emergence, 21 days after application
Description: as §1, §2, §3, §4, §5, §7, §6

[9] = tested on: EPHHL (Euphorbia heterophylla); assay: as above; conditions: for EPHHL Expected: Colby formula; for EPHHL synerg.: observed minus expected; for EPHHL Observed: post-emergence, 21 days after application
Description: as §1, §2, §3, §4, §5, §7, §6

[10] = tested on: POLCO (Polygonum convolvulus); assay: as above; conditions: 12.5 g/ha
Description: as §1, §2, §3, §4, §5, §7, §6

BID PI (Bidens pilosa) = assay: as above; conditions: 25 g/ha (Ia) + 25 g/ha (Ib)
Description: as §1, §2, §3, §4, §5, §7, §6

KCHSC (Kochia scoparia) = assay: as above; conditions: 12.5 g/ha
Description: as §1, §2, §3, §4, §5, §7, §6

[11] = post-emergence, 21 days after application

Structure (SMILES): C=C[C@]1(C(=O)N[C@H]2CO[C@@H](C(=O)OC)C2)CC(c2cc(F)cc(F)c2)=NO1 (relative stereo) [(I), methyl(2R*,4R*)-4-[[(5S)-3-(3,5-difluorophenyl)-5-vinyl-4H-isoxazole-5-carbonyl]amino]tetrahydrofuran-2-carboxylate]
- herbicidal activity compared with the other crystalline forms ([1]; (I) vs (Ia), (Ia) vs (Ib)): superior in herbicidal activity
- synergistic effect of the physical mixture of (Ia) and (Ib) [1]: synergistic effect
- MATIN Expected ([2]; 12.5 g/ha): 0%
- MATIN Synergism ([2]; 12.5 g/ha): 15%
- MATIN Observed ([2]; 12.5 g/ha): 15%
- MATIN Expected ([2]; 25 g/ha): 0%
- MATIN Synergism ([2]; 25 g/ha): 15%
- MATIN Observed ([2]; 25 g/ha): 15%
- MATIN Expected ([2]; 50 g/ha): 0%
- MATIN Synergism ([2]; 50 g/ha): 20%
- MATIN Observed ([2]; 50 g/ha): 20%
- ABUTH Expected ([3]; 25 g/ha (Ia) + 25 g/ha (Ib)): 51%
- ABUTH synerg. ([3]; 25 g/ha (Ia) + 25 g/ha (Ib)): 25%
- ABUTH Observed ([3]; 25 g/ha (Ia) + 25 g/ha (Ib)): 75%
- ABUTH Expected ([3]; 50 g/ha (Ia) + 50 g/ha (Ib)): 68%
- ABUTH synerg. ([3]; 50 g/ha (Ia) + 50 g/ha (Ib)): 7%
- ABUTH Observed ([3]; 50 g/ha (Ia) + 50 g/ha (Ib)): 75%
- AMAPA-R Expected ([4]; Colby formula): 51%
- AMAPA-R synerg. ([4]; observed minus expected): 14%
- AMAPA-R Observed [4, 11]: 65%
- LOLRI_R Expected ([5]; 6.25 g/ha): 15%
- LOLRI_R Synergism ([5]; 6.25 g/ha): 15%
- LOLRI_R Observed ([5]; 6.25 g/ha): 30%
- LOLRI_R Expected ([5]; 12.5 g/ha): 20%
- LOLRI_R Synergism ([5]; 12.5 g/ha): 20%
- LOLRI_R Observed ([5]; 12.5 g/ha): 40%
- LOLRI_R Expected ([5]; 25 g/ha): 30%
- LOLRI_R Synergism ([5]; 25 g/ha): 10%
- LOLRI_R Observed ([5]; 25 g/ha): 40%
- GALAP Expected (GALAP (Gallium aparine); Colby formula): 84%
- GALAP Synergism (GALAP (Gallium aparine); observed minus expected): 6%
- GALAP Observed (GALAP (Gallium aparine); [11]): 90%
- CHEAL Expected ([6]; Colby formula): 76%
- CHEAL synerg. ([6]; observed minus expected): 19%
- CHEAL Observed [6, 11]: 95%
- EMEAU Expected (EMEAU (Emex australis); Colby formula): 89%
- EMEAU Synergism (EMEAU (Emex australis); observed minus expected): 8%
- EMEAU Observed (EMEAU (Emex australis); [11]): 97%
- XANST Expected ([7]; 25 g/ha (Ia) + 25 g/ha (Ib)): 0%
- XANST synerg. ([7]; 25 g/ha (Ia) + 25 g/ha (Ib)): 35%
- XANST Observed ([7]; 25 g/ha (Ia) + 25 g/ha (Ib)): 35%
- XANST Expected ([7]; 50 g/ha (Ia) + 50 g/ha (Ib)): 28%
- XANST synerg. ([7]; 50 g/ha (Ia) + 50 g/ha (Ib)): 7%
- XANST Observed ([7]; 50 g/ha (Ia) + 50 g/ha (Ib)): 35%
- XANST Expected ([7]; 100 g/ha (Ia) + 100 g/ha (Ib)): 36%
- XANST synerg. ([7]; 100 g/ha (Ia) + 100 g/ha (Ib)): 29%
- XANST Observed ([7]; 100 g/ha (Ia) + 100 g/ha (Ib)): 65%
- CHRVI Expected (CHRVI (Chloris virgate); Colby formula): 48%
- CHRVI Synergism (CHRVI (Chloris virgate); observed minus expected): 47%
- CHRVI Observed (CHRVI (Chloris virgate); [11]): 95%
- LOLRI Expected ([8]; 6.25 g/ha): 20%
- LOLRI Synergism ([8]; 6.25 g/ha): 55%
- LOLRI Observed ([8]; 6.25 g/ha): 75%
- LOLRI Expected ([8]; 12.5 g/ha): 90%
- LOLRI Synergism ([8]; 12.5 g/ha): 5%
- LOLRI Observed ([8]; 12.5 g/ha): 95%
- EPHHL Expected ([9]; 25 g/ha (Ia) + 25 g/ha (Ib)): 55%
- EPHHL synerg. ([9]; 25 g/ha (Ia) + 25 g/ha (Ib)): 11%
- EPHHL Observed ([9]; 25 g/ha (Ia) + 25 g/ha (Ib)): 65%
- EPHHL Expected ([9]; 50 g/ha (Ia) + 50 g/ha (Ib)): 58%
- EPHHL synerg. ([9]; 50 g/ha (Ia) + 50 g/ha (Ib)): 12%
- EPHHL Observed ([9]; 50 g/ha (Ia) + 50 g/ha (Ib)): 70%
- POLCO Expected ([10]; Colby formula): 91%
- POLCO Synergism ([10]; observed minus expected): 4%
- POLCO Observed [10, 11]: 95%
- BID PI Expected (BID PI (Bidens pilosa); Colby formula): 37%
- BID PI synerg. (BID PI (Bidens pilosa); observed minus expected): 28%
- BID PI Observed (BID PI (Bidens pilosa); [11]): 65%
- KCHSC Expected (KCHSC (Kochia scoparia); Colby formula): 82%
- KCHSC Synergism (KCHSC (Kochia scoparia); observed minus expected): 13%
- KCHSC Observed (KCHSC (Kochia scoparia); [11]): 95%

Source: patent publication US12714106B2 (Bayer Aktiengesellschaft, priority 2020, dated 2026)
